Values of other authors in article PMC8160438, “A Novel Heptapeptide, GPPGPAG Transfers to the Brain, and Ameliorates Memory Dysfunction and Dendritic Atrophy in Alzheimer’s Disease Model Mice” (Frontiers in Pharmacology, 2021).

Conditions: in vivo, cited from earlier work
Description: In Figure 6H, the mean value of GPPGPAG in the cerebral cortex is 2.748 μg/g of tissue at 180 min after p.o. administration of 500 mg/mouse. When 10 mg/kg GPPGPAG is applied per orally, the transferred amount of GPPGPAG in the brain is calculated as 0.598 pmol. […] Identification of the BBB transporting system for GPPGPAG should be done in future.

| Substance | transport into brain | crossing of the blood-brain barrier (po) |
| --- | --- | --- |
| Gly-Pro | transported into brain |  |
| RPRTRLHTHRNR-NH2 [12-amino acid peptide that crosses the blood-brain barrier] |  | crosses the blood-brain barrier (BBB) without digestion |
| Tyr-Pro | transported into brain |  |
